Measurements as given in US20250345318A1, “COMPOUND AND USE THEREOF IN PREVENTING OR TREATING RADIATION DAMAGE” (SIMCERE PHARMACEUTICAL CO., LTD., priority 2022, published 2025).

How the values were obtained:
[1] = test system: BEAS-2B cells; assay: γ-H2AX foci and Western blot (DSBs), BEAS-2B (Example 22); type: cell-based, human
Description: To investigate the effect of JAC4 in combination with X-ray on DSBs in SPCA-1 and BEAS-2B cells, SPCA-1 and BEAS-2B cells were pretreated with 10 μM JAC4 for 24 h and 4 Gy X-ray for 2 h, and then subjected to γ-H2AX fluorescent labeling and Western immunoblot (see Example 4 for detailed procedures).

[2] = test system: SPCA-1 cells; assay: CCK-8 cell viability, JAC4 with X-ray, SPCA-1 (Example 22); type: cell-based, human; conditions: 10 μM JAC4 24 h + 4 Gy X-ray 24 h
Description: SPCA-1 and BEAS-2B cells were cultured in a 90%/DMEM+10% FBS+100 μg/mL ciprofloxacin culture medium. The SPCA-1 and BEAS-2B cells were pretreated for 24 h with 10 μM JAC4 and subjected to 4 Gy X-ray treatment for 24 h and then CCK-8 detection, so as to explore the influence of JAC4 in combination with X-ray on the viability of SPCA-1 and BEAS-2B cells. The specific procedures are as follows:
1. SPCA-1 and BEAS-2B cells in the exponential growth phase were plated in a 96-well plate at 5,000 cells/well in triplicate for each group.
2. After 24 h of culture, when the cells fully adhered to the container wall and returned to normal morphology, the cells were treated with X-ray radiation of 0, 4, 8, 12, 16, or 20 Gy or JAC4 at 0, 1, 5, 10, 20, or 50 μM.
3. After 24 h of treatment, CCK-8 reagent was added at 10 μL/well, and the cells were incubated in a cell incubator for 1 h. The absorbance (OD) at 450 nm was measured.
4. Cell viability equation: cell viability (%)=[…]×100%/(ODcontrol−ODblank).

[3] = test system: IEC-6 cells; assay: Early apoptosis by Annexin V-PI staining in irradiated IEC-6 cells (Example 13); type: cell-based; conditions: 1 μM JAC4 24 h + 12 Gy X-ray, 24 h after
Description: The apoptosis of IEC-6 cells was determined by Annexin V-PI staining and the early apoptosis rates of IEC-6 cells after different treatments were summarized (***p<0.001). The procedures for the detection by Annexin V-PI staining are as follows: IEC-6 cells were seeded in a 6-well plate at 2×10^5 cells/well. After adhesion, the cells were treated with 1 μM JAC4 or DMSO for 24 h and subjected to 12 Gy of X-ray radiation. After 24 h, the cells were harvested in PBS and analyzed using the Annexin V apoptosis detection kit (BD, FACS AriaIII, USA) on a flow cytometer.

[4] = test system: C57BL/6 male mice; assay: Survival of mice receiving total body X-ray irradiation (Example 1); type: in vivo
Description: C57BL/6 male mice (24.8±1.6 g in body weight) aged 10 weeks were divided into two groups of 11 mice each. After acclimating to the environment, JAC4 (100 mg/kg) or an equal volume of vehicle (polyethylene glycol:ethanol:physiological saline=47.5:7.5:50, v/v/v) was orally administered to the mice once daily for 7 consecutive days. After that, the mice were subjected to total body X-ray irradiation (6.5 Gy) and JAC4 or vehicle treatment was continued. After 3 days, the administration of JAC4 or vehicle was discontinued. The status was observed daily and the body weights of the mice were recorded.

[5] = test system: C57BL/6 male mice; assay: Prophylactic JAC4 administration, total body X-ray irradiation, small intestine villus length (Example 6); type: in vivo
Description: (§1) C57BL/6 male mice (24.8±1.6 g in body weight) aged 10 weeks were divided into 4 groups. JAC4 (100 mg/kg) or an equal volume of vehicle (polyethylene glycol:ethanol:physiological saline=47.5:7.5:50, v/v/v) was orally administered to the mice once daily for 7 consecutive days. After that, the mice were subjected to total body X-ray irradiation (6 Gy) and JAC4 or vehicle treatment was discontinued. After 7 days, the small intestine tissues were collected for HE staining and inspection, and the small intestine villus length was measured in all groups and statistically analyzed. The specific procedures are as follows: 3 mice were randomly selected from each group for statistical analysis of their small intestine tissue HE staining images, and for each mouse, 6 fields of view were randomly selected for inspection (*** p<0.001).

[6] = test system: BEAS-2B cells; assay: ROS, SOD, CAT and MDA assays, BEAS-2B (Example 22); type: cell-based, human
From the text: The large amount of reactive oxygen species (ROS) induced by X-ray and the sustained oxidative stress reaction may cause DNA damage. Superoxide dismutase (SOD) and catalase (CAT) exert antioxidant effects, and the lipid oxidation product malondialdehyde (MDA) and ROS can reflect the oxidative stress level in vivo. The intracellular ROS level was detected using the fluorescent probe DCFH-DA. […] The supernatant of BEAS-2B cells was extracted and subjected to an MDA assay and an activity assay for CAT and SOD.

[7] = test system: C57BL/6 male mice; assay: Therapeutic JAC4 administration, total body X-ray irradiation, small intestine villus length (Example 7); type: in vivo
Description: as §1, with “groups. The mice were subjected to total body X-ray irradiation (6 Gy) before” for “groups.”, “The” for “After that, the mice were subjected to total body X-ray irradiation (6 Gy) and JAC4 or vehicle treatment was discontinued. After 7 days, the”

[8] = non-radiation, JAC4 100 mg/kg oral 7 days

Structure (SMILES): c1ccc(CSc2nnc(C3COc4ccccc4O3)o2)nc1 (centres unmarked) [JAC4]
- formation of γ-H2AX foci ([1]; 10 μM JAC4 24 h + 4 Gy X-ray 2 h vs X-ray treatment group): significantly reduced
- JWA expression level (Western blot) ([1]; 10 μM JAC4 + 4 Gy X-ray): increased
- γ-H2AX protein expression level (Western blot) ([1]; 10 μM JAC4 + 4 Gy X-ray): decreased
- viability of SPCA-1 cells (CCK-8) [2]: significantly inhibited
- early apoptosis rate (Annexin V-PI) [3]: 5.74±0.80%
- mean survival after radiation ([4]; JAC4 100 mg/kg oral once daily, 7 days before to 3 days after total body X-ray 6.5 Gy, observation day 30): 17.9 ± 8.4 days
- number of mice died ([4]; JAC4 100 mg/kg oral, TBI 6.5 Gy, 11 mice per group): 6 mice
- number of mice survived ([4]; JAC4 100 mg/kg oral, TBI 6.5 Gy, 11 mice per group, vehicle group all dead on day 12): 5 mice
- weight loss after radiation ([4]; JAC4 100 mg/kg oral, TBI 6.5 Gy, vs vehicle): slower
- small intestine villus length ([5]; JAC4 100 mg/kg oral 7 days pretreatment, then TBI 6 Gy, tissue 7 days later): 277.64±33.55 μm
- small intestine villus length [5, 8]: 306.54±14.00 μm
- CAT activity ([6]; JAC4+X-ray group): 3.56±0.02 U/mg
- SOD activity ([6]; JAC4+X-ray group): 24.20±1.18 U/mg
- oxidation product MDA level ([6]; JAC4+X-ray group): 31.35 ± 4.34 µM/mg
- CAT activity ([6]; JAC4 group): 3.42±0.08 U/mg
- SOD activity ([6]; JAC4 group): 28.67±1.36 U/mg
- oxidation product MDA level ([6]; JAC4 group): 24.95 ± 1.63 µM/mg
- ROS level ([6]; JAC4 in combination with X-ray): significantly reduced
- small intestine villus length ([7]; TBI 6 Gy, then JAC4 100 mg/kg oral once daily 7 days): 263.11±37.99 μm
- small intestine villus length [7, 8]: 306.71±24.22 μm
